Data published in paper PMC3617838 (Journal of Experimental Botany, 2013).

Assays:
LTP3 (LTP3-GST) = molecular target: T1, LTP3 (LTP3-GST) (Arabidopsis thaliana, UniProt Q9LLR7); assay: fluorescence titration; type: binding
T1 sequence (Q9LLR7 24-115): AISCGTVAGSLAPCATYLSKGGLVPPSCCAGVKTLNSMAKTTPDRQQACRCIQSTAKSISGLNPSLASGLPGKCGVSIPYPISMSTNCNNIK

[1] = molecular target: T2, MYB96-His (Arabidopsis thaliana) (UniProt Q24JK1); assay: EMSA; conditions: EMSA as in Shi et al. 2012; buffer, salt, pH and temperature not stated
T2 sequence: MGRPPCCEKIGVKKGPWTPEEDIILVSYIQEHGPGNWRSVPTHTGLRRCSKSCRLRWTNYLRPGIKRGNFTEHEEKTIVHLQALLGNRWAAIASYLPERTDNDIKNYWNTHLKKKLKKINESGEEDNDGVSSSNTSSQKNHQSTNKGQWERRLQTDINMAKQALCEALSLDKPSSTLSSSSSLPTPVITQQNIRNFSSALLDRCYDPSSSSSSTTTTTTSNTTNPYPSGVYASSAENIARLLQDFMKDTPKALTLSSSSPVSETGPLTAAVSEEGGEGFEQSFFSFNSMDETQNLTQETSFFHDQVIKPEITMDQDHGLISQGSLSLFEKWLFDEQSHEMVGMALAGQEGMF

| Molecule | Kd (LTP3 (LTP3-GST)) [µM] | binding [1] |
| --- | --- | --- |
| Cc1ccc(Nc2ccc3cc(S(=O)(=O)O)ccc3c2)cc1 [TNS, 2-p-toluidinonaphthalene-6-sulphonate] | 9.8 ± 4.7 | – |
| CCACAGTTAATTAAAAGCAGATGAAAGGTGGTCCAATGGAAAAGGAGAATGTGATTGGGCTAGTTGGGAGAGTTCTGATGTCTAGTGTTGGGTACACGTGTCCGTCAGTTACACA (double strand) [LTP3 promoter XY] | – | binds |
